Results taken from ChEMBL document CHEMBL3856212, “Synthesis, anti-proliferative and genotoxicity studies of 6-chloro-5-(2-substituted-ethyl)-1,3-dihydro-2H-indol-2-ones and 6-chloro-5-(2-chloroethyl)-3-(alkyl/ary-2-ylidene)indolin-2-ones” (Eur J Med Chem, 2016).

Assays:
[1] = Cytotoxicity against human MCF7 cells assessed as assessed as growth inhibition at 10^-5 M after 48 hrs by SRB assay relative to control; assay type: functional; conditions: MCF7, 48 h, read-out: GI
[2] = Cytotoxicity against human LOXIMVI cells assessed as assessed as growth inhibition at 10^-5 M after 48 hrs by SRB assay relative to control; assay type: functional; conditions: LOX IMVI, read-out: GI
[3] = Cytotoxicity against human SKOV3 cells assessed as assessed as growth inhibition at 10^-5 M after 48 hrs by SRB assay relative to control; assay type: functional; conditions: SK-OV-3, 48 h, read-out: GI
[4] = Cytotoxicity against human MDA-MB-468 cells assessed as assessed as growth inhibition at 10^-5 M after 48 hrs by SRB assay relative to control; assay type: functional; conditions: MDA-MB-468, 48 h, read-out: GI
[5] = Cytotoxicity against human MDA-MB-231 cells assessed as assessed as growth inhibition at 10^-5 M after 48 hrs by SRB assay relative to control; assay type: functional; conditions: MDA-MB-231, 48 h, read-out: GI
[6] = Cytotoxicity against human RPMI8226 cells assessed as growth inhibition after 48 hrs by SRB assay; assay type: functional; conditions: RPMI-8226, 48 h
[7] = Cytotoxicity against human SK-MEL-2 cells assessed as growth inhibition after 48 hrs by SRB assay; assay type: functional; conditions: SK-MEL-2, 48 h
[8] = Cytotoxicity against human LOXIMVI cells assessed as growth inhibition after 48 hrs by SRB assay; assay type: functional; conditions: LOX IMVI
[9] = Cytotoxicity against human RXF393 cells assessed as growth inhibition after 48 hrs by SRB assay; assay type: functional; conditions: RXF 393, 48 h
[10] = Induction of apoptosis in mouse EAC cells at 500 uM after 24 hrs by acridine orange dye-based fluorescence microscopy (reference value: 0.66 +/- 0.33%); assay type: cell-based; conditions: ehrlich
[11] = Cytotoxicity against human SK-MEL-2 cells assessed as assessed as growth inhibition at 10^-5 M after 48 hrs by SRB assay relative to control; assay type: functional; conditions: SK-MEL-2, 48 h, read-out: GI
[12] = Cytotoxicity against human UACC62 cells assessed as assessed as growth inhibition at 10^-5 M after 48 hrs by SRB assay relative to control; assay type: functional; conditions: UACC-62, 48 h, read-out: GI
[13] = Cytotoxicity against human ACHN cells assessed as assessed as growth inhibition at 10^-5 M after 48 hrs by SRB assay relative to control; assay type: functional; conditions: read-out: GI
[14] = Cytotoxicity against human HT-29 cells assessed as assessed as growth inhibition at 10^-5 M after 48 hrs by SRB assay relative to control; assay type: functional; conditions: HT-29, 48 h, read-out: GI
[15] = Cytotoxicity against human SKOV3 cells assessed as growth inhibition after 48 hrs by SRB assay; assay type: functional; conditions: SK-OV-3, 48 h
[16] = Cytotoxicity against human MDA-MB-231 cells assessed as growth inhibition after 48 hrs by SRB assay; assay type: functional; conditions: MDA-MB-231, 48 h
[17] = Cytotoxicity against human HOP62 cells assessed as assessed as growth inhibition at 10^-5 M after 48 hrs by SRB assay relative to control; assay type: functional; conditions: HOP-62, 48 h, read-out: GI
[18] = Cytotoxicity against human IGROV1 cells assessed as assessed as growth inhibition at 10^-5 M after 48 hrs by SRB assay relative to control; assay type: functional; conditions: IGROV-1, 48 h, read-out: GI
[19] = Cytotoxicity against human UACC257 cells assessed as assessed as growth inhibition at 10^-5 M after 48 hrs by SRB assay relative to control; assay type: functional; conditions: UACC-257, 48 h, read-out: GI
[20] = Cytotoxicity against human SF295 cells assessed as growth inhibition after 48 hrs by SRB assay; assay type: functional; conditions: SF-295, 48 h
[21] = Cytotoxicity against human COLO205 cells assessed as growth inhibition after 48 hrs by SRB assay; assay type: functional; conditions: COLO 205, 48 h
[22] = Cytotoxicity against human SW620 cells assessed as growth inhibition after 48 hrs by SRB assay; assay type: functional; conditions: SW-620, 48 h
[23] = Cytotoxicity against human SNB19 cells assessed as growth inhibition after 48 hrs by SRB assay; assay type: functional; conditions: SNB-19, 48 h
[24] = Cytotoxicity against human HL-60(TB) cells assessed as growth inhibition after 48 hrs by SRB assay; assay type: functional; conditions: HL-60, 48 h
[25] = Cytotoxicity against human PC3 cells assessed as growth inhibition after 48 hrs by SRB assay; assay type: functional; conditions: PC-3, 48 h
[26] = Cytotoxicity against human SF539 cells assessed as growth inhibition after 48 hrs by SRB assay; assay type: functional; conditions: SF-539, 48 h
[27] = Cytotoxicity against human SK-MEL-28 cells assessed as assessed as growth inhibition at 10^-5 M after 48 hrs by SRB assay relative to control; assay type: functional; conditions: SK-MEL-28, 48 h, read-out: GI
[28] = Cytotoxicity against human OVCAR3 cells assessed as growth inhibition after 48 hrs by SRB assay; assay type: functional; conditions: OVCAR-3, 48 h
[29] = Induction of apoptosis in mouse EAC cells at 250 uM after 24 hrs by acridine orange dye-based fluorescence microscopy (reference value: 0.66 +/- 0.33%); assay type: cell-based; conditions: ehrlich
[30] = Cytotoxicity against human NCI-H23 cells assessed as growth inhibition after 48 hrs by SRB assay; assay type: functional; conditions: NCI-H23, 48 h
[31] = Cytotoxicity against human NCI-H522 cells assessed as assessed as growth inhibition at 10^-5 M after 48 hrs by SRB assay relative to control; assay type: functional; conditions: NCI-H522, 48 h, read-out: GI
[32] = Cytotoxicity against human ACHN cells assessed as growth inhibition after 48 hrs by SRB assay; assay type: functional
[33] = Cytotoxicity against human EKVX cells assessed as assessed as growth inhibition at 10^-5 M after 48 hrs by SRB assay relative to control; assay type: functional; conditions: read-out: GI
[34] = read-out: LD50 (the source's name)

Compound: O=C1Cc2cc(CCn3cncn3)c(Cl)cc2N1
- inhibition of growth at 10 µM [1]: 71%
- inhibition of growth at 10 µM [2]: 19%
- inhibition of growth at 10 µM [3]: 20.7%
- inhibition of growth at 10 µM [4]: 64.9%
- inhibition of growth at 10 µM [5]: 44%
- GI50 [6]: 1000 nM
- TGI [6]: > 1000 nM
- CC50 [6, 34]: > 1000 nM
- GI50 [7]: 1240 nM
- TGI [7]: > 1000 nM
- CC50 [7, 34]: > 1000 nM
- GI50 [8]: 1000 nM
- TGI [8]: > 1000 nM
- CC50 [8, 34]: > 1000 nM
- GI50 [9]: 7480 nM
- TGI [9]: > 1000 nM
- CC50 [9, 34]: > 1000 nM
- Activity [10]: 0.36%
- inhibition of growth at 10 µM [11]: 28.7%
- inhibition of growth at 10 µM [12]: 31.8%
- inhibition of growth at 10 µM [13]: 25.4%
- inhibition of growth at 10 µM [14]: 2.85%
- GI50 [15]: 3650 nM
- TGI [15]: > 1000 nM
- CC50 [15, 34]: > 1000 nM
- GI50 [16]: 4660 nM
- TGI [16]: > 1000 nM
- CC50 [16, 34]: > 1000 nM
- inhibition of growth at 10 µM [17]: 30.4%
- inhibition of growth at 10 µM [18]: 15.3%
- inhibition of growth at 10 µM [19]: 48.3%
- GI50 [20]: 3710 nM
- TGI [20]: > 1000 nM
- CC50 [20, 34]: > 1000 nM
- GI50 [21]: 2330 nM
- TGI [21]: > 1000 nM
- CC50 [21, 34]: > 1000 nM
- GI50 [22]: 6600 nM
- TGI [22]: > 1000 nM
- CC50 [22, 34]: > 1000 nM
- GI50 [23]: 7070 nM
- TGI [23]: > 1000 nM
- CC50 [23, 34]: > 1000 nM
- GI50 [24]: 1000 nM
- TGI [24]: > 1000 nM
- CC50 [24, 34]: > 1000 nM
- GI50 [25]: 1000 nM
- TGI [25]: > 1000 nM
- CC50 [25, 34]: > 1000 nM
- GI50 [26]: 1000 nM
- TGI [26]: > 1000 nM
- CC50 [26, 34]: > 1000 nM
- inhibition of growth at 10 µM [27]: 32.8%
- GI50 [28]: 1000 nM
- TGI [28]: > 1000 nM
- CC50 [28, 34]: > 1000 nM
- Activity [29]: 0.63%
- GI50 [30]: 1000 nM
- TGI [30]: > 1000 nM
- CC50 [30, 34]: > 1000 nM
- inhibition of growth at 10 µM [31]: 67.2%
- GI50 [32]: 1000 nM
- TGI [32]: > 1000 nM
- CC50 [32, 34]: > 1000 nM
- inhibition of growth at 10 µM [33]: 70.5%
